Results taken from US20230302022A1, “PREVENTING OR MITIGATING CHEMOTHERAPY INDUCED ALOPECIA USING VITAMIN D” (priority 2016, published 2023).

Assays:
[1] = tested on: EMT-6 murine breast tumor; conditions: topical pretreatment + cyclophosphamide vs either agent alone; cited from earlier work
NCI-ES-0808 = test: Cell growth / viability assay, NCI-ES-0808; format: cell-based
Description: (§1) The drug treatment period was usually three days. At the end of the three days, the background OD of the 96-well plate was read at 280 nm, before 20 μL of the “Substrate Cell Titer 96 Aqueous One Solution Reagent” (Promega) was added to each well. […] The net OD increase was calculated by subtracting the pre-substrate OD reading. The impact of the drug on the cells was calculated by comparing the OD at different concentrations in relation to the OD of the control wells (without the drug). The results of the Net OD as a function of drug concentration was plotted and used to determine ED50 values.

[2] = tested on: Sprague-Dawley or Long Evans rats; test: CIA in 5-day-old Sprague-Dawley or Long Evans rats, calcitriol 1, 2 or 3 μg/mL; format: in vivo, rat
[3] = tested on: Long Evans and Sprague Dawley rats; test: Chemotherapy-induced alopecia (CIA) in the neonatal rat, topical calcitriol formulation; format: in vivo
guinea pigs = test: Skin sensitization study in guinea pigs; format: in vivo, guinea pig; conditions: 5.7 μg/g
Description: Induction phase. […] The induction exposure was repeated at the same skin site once a week for 2 weeks. The vehicle and positive control groups composed of 5 male and 5 female guinea pigs, each of which were exposed in the same manner as the treatment group to propylene glycol/anhydrous ethanol or hexylcinnamic aldehyde (a known mild to moderate skin-sensitizer), respectively. Skin reactions were scored and recorded at approximately 24 hours after patch removal during the induction phase. After the last induction exposure, the animals remained untreated for two weeks before the challenge exposure.
Challenge phase. The challenge exposure was conducted two weeks after the final topical induction. The test article was topically applied to the Vehicle Control and Test Group at the concentration determined to be non-irritating in the irritation screen. The Vehicle Control Group was also challenged with the Vehicle. The Positive Control Groups received the positive control article. The challenge application sites were scored at approximately 24 and 48 hours after patch removal.

HepG2 (liver cancer) = test: Cell growth / viability assay, HepG2; format: cell-based
Description: The drug treatment period was usually three days. At the end of the three days, the background OD of the 96-well plate was read at 280 nm, before 20 μL of the “Substrate Cell Titer 96 Aqueous One Solution Reagent” (Promega) was added to each well. The plate was returned to the 37° C. incubator, and its OD at 490 nm was read each hour until an OD of approximately 1.5 was reached. The net OD increase was calculated by subtracting the pre-substrate OD reading.
The impact of the drug on the cells was calculated by comparing the OD at different concentrations in relation to the OD of the control wells (without the drug).
Then these pretreated cells were utilized to set up the cell based assay.

Gottingen Minipigs = test: 4-week dermal toxicity study in Gottingen Minipigs; conditions: twice daily, 29 consecutive days, 2.1 mL
Description: Observations for morbidity, mortality, injury, and the availability of food and water were conducted twice daily for all animals. Clinical observations were conducted weekly.

[4] = tested on: NIH-3T3 (immortalized fibroblast); test: Cell growth / viability assay, NIH-3T3; format: cell-based
Description: as §1

BALB/c mice = conditions: cited from earlier work

## C=C1/C(=C\C=C2/CCC[C@]3(C)[C@@H]([C@H](C)CCCC(C)(C)O)CC[C@@H]23)C[C@@H](O)C[C@@H]1O [Calcitriol, (5Z,7E)-9,10-secocholesta-5,7.10(19Hriene-1 a,33.25-triol]
[1]
  rate of tumor growth: greater reduction in the rate of tumor growth
NCI-ES-0808
  effect of calcitriol on cell growth: no significant growth promoting or growth inhibiting effects
  effect of calcitriol on the cytotoxic effect of Doxorubicin: did not appear to appreciably alter
[2]; 1 μg/mL
  location of hair growth: limited to the treated area
[2]; 3 μg/mL
  location of hair growth: also observed on the dorsal region
[2]; 6-hour exposure
  protection from CIA: complete protection
[2]; 1.5 hour exposure
  protection from CIA: no protection
[3]
  protection from cytarabine-induced alopecia: protective effect
Guinea pigs
  skin sensitization: not determined to be a sensitizer
HepG2 (liver cancer); Hep-G2
  effect of calcitriol on the cytotoxic effect of Doxorubicin: did not appear to appreciably alter
HepG2 (liver cancer); Hep-G2, 0.1 μg/mL calcitriol
  5-FU ED50 curve with vs without calcitriol: not significantly different
HepG2 (liver cancer); Hep-G2, 0.1 μg/mL calcitriol for two passages
  response to doxorubicin, cisplatin and erlotinib after calcitriol exposure: did not alter
Gottingen Minipigs
  no-observed-adverse-effect-level (NOAEL): 10.31 µg/mL
[4]
  effect of calcitriol on cell growth: no significant growth promoting or growth inhibiting effects
  effect of calcitriol on the cytotoxic effect of Doxorubicin: did not appear to appreciably alter
BALB/c mice; EMT-6, vs female mice without tumor and tumor-bearing males
  protective effect in tumor-bearing female mice: more efficient protective effect
BALB/c mice; EMT-6 tumor cells
  protective effect in tumor-bearing male mice: diminished
BALB/c mice; male BALB/c mice, topical 5 days prior to cyclophosphamide
  degree of CIA: significantly reduced the degree of CIA in a dose-dependent manner
BALB/c mice; mouse, in vivo
  apoptosis staining pattern vs unexposed mice: no significant differences in apoptosis staining pattern
